Measurements reported in the NIST ThermoML archive (doi:10.1016/j.jct.2017.10.011).
± gives the expanded uncertainty stated by the source.

Columns and labels:
[1] = Crystal 2; DSC
[2] = Molar enthalpy of transition or fusion; conditions: Crystal 2; DSC

SMILES: O=C1COC(=O)CO1 [1,4-dioxane-2,5-dione]
- Triple point temperature [1]: 317.51 ± 2.1 K
- Molar enthalpy of transition or fusion [2]: 0.422 ± 0.0502 kcal/mol
